Common to all, as to test: NCI-60 cell line screen, 48 h
Assay [1] has as its system ACHN.
Assay [2] concerns CAKI-1.
For assay [3], the system named is EKVX.
Assay [4] deals with HCT-15.
Assay [5] has as its system HT-29.
The test system of assay [6] is K562.
The subject of assay [7] is LOX IMVI.
The test system of assay [8] is M14.
The subject of assay [9] is NCI-H460.
The subject of assay [10] is NCI-H522.
Assay [11] concerns OVCAR-3.
In assay [12] the test system is OVCAR-8.
Assay [13] relates to RPMI-8226.
Assay [14] has as its system SF-539.
Assay [15] concerns SK-MEL-28.
Assay [16] has as its system SK-OV-3.
The subject of assay [17] is SNB-75.
Assay [18] deals with SR.

Data on nine compounds can be found in ChEMBL document CHEMBL1201862, “PubChem BioAssay data set” (2004).

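1) Cells in 96-well plates. 2) Compound, 48 h, 5 concentrations. 3) Linear interpolation between surrounding doses. 4) Unreached endpoint = highest concentration. GI50 = concentration required for 50% inhibition of growth.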 Calls of active or inactive are those of the source. No stated cut-off is given here; in the data, active = GI50 up to about 1.1 µM and inactive = higher.

Regarding `N#CC1C(=O)NC(=O)C1=O` (centres undefined), the GI50 in assay [1] is > 100 µM (inactive); in assay [2], > 100 µM (inactive); in assay [3], > 100 µM (inactive); in assay [4] it was over 100 µM; in [5] it was > 100 µM (inactive); in assay [6], > 100 µM (inactive). Also, the GI50 in [7], in assay [8], in assay [9], in assay [10], in assay [11] and in [12] was > 100 µM (inactive) in each case. The GI50 in assay [13], in assay [14], in assay [15], in [16] and in [17] was > 100 µM (inactive) throughout.
With `O/N=C/c1ccc(O)c(O)c1`, the GI50 in assay [1] was 39.9 µM (inactive); in [2], 67.8 µM (inactive); in assay [3], 75.7 µM (inactive); in [4], 44.1 µM; in assay [5], > 100 µM (inactive); in assay [6], 55.8 µM (inactive). Besides, the GI50 in assay [7] is 67.8 µM (inactive); in [8] it was 97.5 µM (inactive); in assay [9], 77.4 µM (inactive); in assay [10], 15.2 µM (inactive); in [11], 31.8 µM (inactive); in assay [12], > 100 µM (inactive). Also, the GI50 in assay [14] is > 100 µM (inactive); in [15], > 100 µM (inactive); in [16] it was > 100 µM (inactive); in assay [17], > 100 µM (inactive); in assay [18] it was 37.2 µM (inactive).
With `Cc1cc(N(CCC#N)CCC#N)ccc1/N=N/c1ccc(C(=O)O)cc1`, the GI50 in [1] is > 100 µM (inactive); in assay [2], > 100 µM (inactive); in assay [3], > 100 µM (inactive); in assay [4], over 100 µM; in [5], > 100 µM (inactive); in assay [7], > 100 µM (inactive). In addition, the GI50 in [8] is > 100 µM (inactive); in assay [10], > 100 µM (inactive); in assay [11], > 100 µM (inactive); in [12], > 100 µM (inactive); in assay [13], 99.3 µM (inactive); in assay [14], > 100 µM (inactive). The GI50 in [15] was > 100 µM (inactive); in [16], > 100 µM (inactive); in assay [17], 36.7 µM (inactive).
Consider `CC(=O)OCCc1cccnc1/C=N/O`, for which the GI50 in assay [1] was > 100 µM (inactive); in [2] it was > 100 µM (inactive); in assay [3] it was > 100 µM (inactive); in assay [4], over 100 µM; in [5], > 100 µM (inactive); in [6], > 100 µM (inactive). Besides, the GI50 in assay [7], in [8], in [9], in [10], in assay [11] and in [12] was > 100 µM (inactive) throughout. Also, the GI50 in assay [14], in assay [15], in assay [16], in [17] and in [18] was > 100 µM (inactive) throughout.
As for `CCOc1ccc(/C=N\N2C(=O)c3ccccc3C2=O)cc1`, the GI50 was > 100 µM (inactive) in [1]; > 100 µM (inactive) in assay [2]; > 100 µM (inactive) in assay [3]; over 100 µM in [4]; > 100 µM (inactive) in assay [5]; > 100 µM (inactive) in assay [6]. The GI50 in assay [7], in assay [8], in assay [9], in assay [11], in assay [12] and in assay [13] was > 100 µM (inactive) in each case. For the same compound, the GI50 in assay [14], in [15], in [17] and in [18] was > 100 µM (inactive) each time.
For the compound `CCOC(=O)c1sc2c(C(=O)OCC)n3ccccc3c2c1N`, the GI50 in [1] was 52.8 µM (inactive); in assay [2], > 100 µM (inactive); in [3], 59.4 µM (inactive); in assay [4] it was over 100 µM; in assay [5], > 100 µM (inactive); in [6], > 100 µM (inactive). Also, the GI50 in assay [7] was > 100 µM (inactive); in [8], > 100 µM (inactive); in assay [9], > 100 µM (inactive); in assay [10], 20.3 µM (inactive); in assay [11], > 100 µM (inactive); in [12], 61.9 µM (inactive). Besides, the GI50 in assay [13] is > 100 µM (inactive); in [14] it was 64.1 µM (inactive); in assay [15] it was > 100 µM (inactive); in [16], 38 µM (inactive); in [17], 31.7 µM (inactive).
Take `C=CSCCC(N)C(=O)O` (centres undefined): the GI50 in [1] was > 100 µM (inactive); in assay [2], > 100 µM (inactive); in assay [3], > 100 µM (inactive); in assay [4], over 100 µM; in [5], > 100 µM (inactive); in assay [6] it was > 100 µM (inactive). The GI50 in assay [7], in assay [8], in assay [9], in [10], in assay [11] and in assay [12] was > 100 µM (inactive) each time. Further, the GI50 in assay [14], in assay [15], in assay [17] and in assay [18] was > 100 µM (inactive) each time.
Consider `O=C1/C(=N\O)C2CCC1C2` (centres undefined), for which the GI50 in assay [1] is > 100 µM (inactive); in assay [2], > 100 µM (inactive); in assay [3], > 100 µM (inactive); in [4], over 100 µM; in [5], > 100 µM (inactive); in [6] it was > 100 µM (inactive). The GI50 in [7], in [8], in [9], in assay [10], in [11] and in [12] was > 100 µM (inactive) throughout. Moreover, the GI50 in assay [13], in assay [14], in [15], in assay [16] and in [17] was > 100 µM (inactive) throughout.
As for `C/C(=C\CC[C@]1(C)OC(C)(C)OC1CC/C(C)=C/CO[Si](c1ccccc1)(c1ccccc1)C(C)(C)C)CC/C=C/CO[Si](C)(C)C(C)(C)C` (some centres undefined), the GI50 in assay [1] is > 100 µM (inactive); in [2], > 100 µM (inactive); in [3], > 100 µM (inactive); in [4], over 100 µM; in assay [5] it was > 100 µM (inactive); in [6], > 100 µM (inactive). Besides, the GI50 is > 100 µM (inactive) in assay [7]; > 100 µM (inactive) in assay [8]; > 100 µM (inactive) in [9]; > 100 µM (inactive) in [10]; 74.5 µM (inactive) in assay [11]; > 100 µM (inactive) in [12]. The GI50 in [13], in assay [14], in assay [15], in [16] and in [17] was > 100 µM (inactive) throughout.
